Laboratory results: US20250295693A1, “HYBRID TUMOR/CANCER THERAPY BASED ON TARGETING THE RESOLUTION OF OR INDUCING TRANSCRIPTION-REPLICATION CONFLICTS (TRCS)” (Julius-Maximilians-Universität Würzburg, priority 2021, published 2025)
“Also recorded” adds a separate entry of the source.

Key:
pancreas carcinoma cells = assay: Microscopy-based siRNA screen for DNA damage in pancreas carcinoma cells; type: cell-based; conditions: siRNA hits, low concentration of ATR inhibitor
Excerpt: FIG. 1. […] Similar assays (not shown) establish that CDK12 acts downstream of PAF1 in this pathway. e: DNA damage and colony assays in response to combined inhibition of CDK12 and ATR.
Targeting the mechanisms that resolve TRCs is considered a viable strategy to inflict tumor cell-specific DNA damage and/or to sensitize tumors to immune cell-mediated killing. Several of the mechanisms described herein appear to be specific for MYCN-driven tumors. For example, (c-)MYC (herein also just “MYC”) binds only very weakly to Aurora-A (Dauch, Nat Med 22, 2016, 744-53). Therefore, pathways have been identified that resolve TRCs in models of MYC driven tumors, which encompasses the vast majority of all tumors. Specifically, there was a focus on conflicts in a cell line established from the KPC model of pancreas carcinoma (Hingorani, loc.cit.). This reflects human PDAC. In this model, an siRNA screen of 86 candidate genes was performed using several parallel microscope-based assays to measure the occurrence of TRCs (FIG. 1).

[1] = target: Aurora-A alleles, T217D and T217E (Homo sapiens, UniProt O14965, T217D); conditions: cited from earlier work
phosphoKap1 = assay: EdU incorporation/Hoechst plots with phosphoKap1 staining (DNA damage in S-phase); type: cell-based; conditions: b279: in conjunction with ATR inhibition
Excerpt: (§1) Deregulation of the WNT pathway in CRC not only deregulates transcription by RNAPII, but also by RNA polymerase I, which transcribes ribosomal RNAs in the nucleolus; this leads to enhanced synthesis of ribosomal RNA (Morral, Cell stem cell 26, 2020, 845-61). This is mediated by a beta-catenin dependent upregulation of multiple components of the ribosomal RNA synthesis machinery (FIG. 4a). Further to these observations, the effect of CX-5461, an inhibitor of RNA polymerase I transcription on the growth of CRC metastases, was analyzed. […] This observation was confirmed. […] Since there is an ongoing debate on the primary mechanism of CX-5461 action (Bruno, PNAS 117, 2020, 4053-60; Sanij, Nat Commun 11, 2020, 2641; Xu, Nat Commun 8, 2017, 14432), genetic work to validate its precise mechanism of action, and to further confirm that combining POL1 and ATR inhibition is a valid strategy to induce TRCs, is performed.

RPA194 and RAD9 = assay: Proximity ligation assays for RPA194 and RAD9; type: cell-based
Excerpt: as §1

human CRC cell lines = assay: Colony assays of CRC cells in culture; type: cell-based; conditions: low concentrations of CX-5461 combined with ATR inhibitor (AZD6738); p53-independent
Excerpt: as §1

murine CRC organoids = assay: Growth of CRC organoids, CX-5461 plus ATR inhibitor; type: cell-based; conditions: low concentrations of CX-5461 combined with ATR inhibitor (AZD6738)
Excerpt: as §1

CDK12 kinase = conditions: cited from earlier work
MYC protein = assay: Immunoblot of MYC protein in human tumor cells; type: cell-based; conditions: 24 h treatment
Description: FIG. 14. […] A: Immunoblot of tumor cells after 24 h treatment with Cymarin. B: Quantification of MYC protein levels in human pancreatic tumor cells and colorectal tumor cells.
(§2) After treatment for 24 h, cells were harvested in RIPA buffer containing protease and phosphatase inhibitor cocktails. The protein concentration was determined using BCA or Bradford assay. 15 μg of protein was loaded on a 10% SDS gel. After electrophoresis, proteins were transferred to 0.45 μm PVDF membrane and incubated with primary antibodies at 4° C. overnight. The signal was detected using peroxidase-conjugated species-specific secondary antibodies and visualized at LAS-4000 Luminescent Image Analyzer (Fujifilm).
An immunoblot of tumor cells after 24 h treatment with cymarin was made (FIG. 14A). Quantification of MYC protein levels in human pancreatic tumor cells and colorectal tumor cells was performed (FIG. 14B).

MYC = MYC expression in cells with ectopic expression of murine ATP1A1; type: cell-based
Description: FIG. 15. The effect of CG on MYC protein levels is mediated by inhibition of the NA/K pump. A: Depletion of the ATP1A1 subunit of the NA/K pump leads to the reduction of MYC protein levels. B: Ectopic expression of murine ATP1A1 renders the expression of MYC insensitive from the addition of cymarin, a prototypical KG.
as §2
Further, it was shown that the depletion of the ATP1A1 subunit of the NA/K pump leads to the reduction of MYC protein levels (FIG. 15A).

[2] = system: human LS174 colo-rectal tumor cells; assay: Extracellular acidification rate (lactate secretion), Seahorse XF96; type: cell-based

Sequence of Aurora-A alleles, T217D and T217E (O14965 whole entry T217D): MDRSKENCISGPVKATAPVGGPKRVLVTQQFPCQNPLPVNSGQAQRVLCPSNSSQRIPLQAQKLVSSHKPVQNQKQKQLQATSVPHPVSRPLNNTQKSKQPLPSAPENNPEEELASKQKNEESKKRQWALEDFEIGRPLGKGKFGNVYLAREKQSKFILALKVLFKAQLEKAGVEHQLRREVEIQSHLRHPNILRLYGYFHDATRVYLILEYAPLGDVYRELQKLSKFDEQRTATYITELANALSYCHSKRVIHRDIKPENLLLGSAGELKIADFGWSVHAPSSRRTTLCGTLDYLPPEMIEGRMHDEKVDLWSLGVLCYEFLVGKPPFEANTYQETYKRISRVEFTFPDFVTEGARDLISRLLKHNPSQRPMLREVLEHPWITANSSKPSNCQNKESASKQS

C[C@@H]1COCCN1c1cc(C2([S@](C)(=N)=O)CC2)nc(-c2cc[nH]c3nccc2-3)n1 [AZD6738]
DNA damage (pancreas carcinoma cells): strongly increased DNA damage

COc1cc(Nc2ncc3c(n2)-c2ccc(Cl)cc2C(c2c(F)cccc2OC)=NC3)ccc1C(=O)O [Alisertib]
resistance of cells [1]: resistant

Cc1cnc(CNC(=O)c2c(=O)c3ccc(N4CCCN(C)CC4)nc3n3c2sc2ccccc23)cn1 [CX-5461]
DNA damage during DNA replication (S-phase) (phosphoKap1): induction of DNA damage; also recorded: massive DNA damage
conflicts with DNA replication: proximity between RPA194 and RAD9 (RPA194 and RAD9): increased proximity
colony formation (human CRC cell lines): suppression of growth; also recorded: almost completely suppressed
colony formation / growth of organoids (murine CRC organoids): suppression of growth; also recorded: almost completely suppressed

Cn1cc(-n2cnc3c(NCc4nc5cc(Cl)c(Cl)cc5[nH]4)nc(N4CCOCC4)nc32)cn1 [SR4835]
inhibition of the CDK12 kinase (CDK12 kinase): specific and potent inhibitor

CO[C@H]1C[C@H](O[C@H]2CC[C@]3(C=O)[C@H]4CC[C@]5(C)[C@@H](C6=CC(=O)OC6)CC[C@]5(O)[C@@H]4CC[C@]3(O)C2)O[C@H](C)[C@H]1O [cymarin, Cymarin]
amount of MYC protein (MYC protein): reduce the amount of MYC protein
expression of MYC on addition of cymarin (MYC): insensitive
extracellular acidification rate (lactate secretion) ([2]; LS174 cells): significantly reduced
effect on extracellular acidification rate ([2]; overexpression of the murine 1 isoform of Na+/K+-ATPase): can be reduced
